# Where two headings read alike, the source gives them in different places.
# Key:
# [1] = system: SRBC specific immunoglobulin; assay: Humoral response: haemagglutination antibody titre against SRBC in normal and immunocompromised rats; assay type: in vivo; conditions: Wistar rats, IMS-6 200 mg/Kg orally 14 days, SRBC ip day 10, Cyclophosphamide 400 mg/Kg ip day 12, serum day 14; control 3.278 ± 0.181
# [2] = J. Chem. Soc., Pakistan, 1982; cited from earlier work
# [3] = Indian J. Chem, 1989; cited from earlier work
# [4] = biological target: snake venom Phosphodiesterase type I (Crotalus adamanteus, UniProt J3SEZ3); conditions: cited from earlier work
# [5] = system: IL-6 production in RAW-264.7 Cells; assay: Estimation of IL-6 production by ELISA in macrophage supernatant; assay type: cell-based, mouse; conditions: Table 7; RAW 264.7 supernatant; control 542 ± 4
# Procedure: (§1) This experiment was carried out to know whether the plant extract has stimulatory effects on the production of proinflammatory cytokines. Mouse macrophage cells, RAW 264.7 were cultured for 48 hours in the presence or in the absence of filtered plant extract. LPS was used as stimulant for proinflammatory cytokines TNF-∝ and IL-6. Supernatant of these samples were harvested immediately for estimations of TNF-∝ and IL-6 by an ELISA as per the manufacturer's protocol and recorded the results as concentrations in pg/ml.
# [6] = system: ACD sensitized L929 cells; assay: Assay for immunostimulatory effects: proinflammatory cytokine induced cell death after transfer of RAW 264.7 supernatant; assay type: cell-based, mouse; conditions: Table 4, extract 200 μg/ml, LPS 1 μg/ml, control 0
# Procedure: The extracts […] to […] and SR-1 to SR-11 were subjected to biological screening in Mouse macrophage (RAW 264.7) cell and fibroblast (L929) cells for in vitro immunomodulatory activity. Following the treatment with sub toxic levels of the extract the percent death in the ACD sensitised cells was taken as end point.
# The stock solution of the plant extract was prepared in specified solvent at a concentration of 50 mg/ml. The working concentration of 10 mg/ml solution was prepared in incomplete Dulbecco's Modified Eagle's Medium (DMEM) and filter sterilized for further use in the assays.
# Mouse macrophage (RAW 264.7) cells and fibroblast (L929) cells were used in the in vitro assays. These were maintained in DMEM supplemented with 10% fetal calf serum (FCS) at 37° C. in a humidified atmosphere containing 5% CO2/95% air. The cells were sub cultured upon confluence.
# Mouse macrophage (RAW 264.7) cells were plated at a cell density of 1×10^5 cells/well in a 96 well micro titer plate. After 24 h of incubation they were treated with filtered extract (200 μg/ml), Lipopolysaccharide (1 μg/ml) or media alone and incubated for a further period of 18-24 h. The supernatants as such or diluted ( 1/10th or 1/20th) were transferred to pre-incubated (24 h) L929 cells ([…]). […]
# RAW-264.7 Cells = assay: Nitric oxide (NO) estimation, nitrite released from mouse macrophage cells; assay type: cell-based; conditions: Table 5, 48 h, LPS 1 μg/ml, control 800 ± 50
# Procedure: Macrophages are part of immune system (innate immunity) which phagocytose the intruder organism and kill them by release of toxic Nitric Oxide (NO). In this experiment, the ability of the plant extract to stimulate the macrophages for NO production was measured as nitrite released from mouse macrophage cells. Mouse macrophage cells were plated in 96-well culture plates (1×10^5 cells/well) and incubated for 24 h at 37° C. in a humidified atmosphere containing 5% CO2/95% air. The spent media from each well was aspirated and replenished with fresh media and further incubated for 48 h with desired concentration of extract in presence or in absence of Lipopolysaccharide (LPS 1 μg/ml). NO production in the supernatant was measured by micro plate assay. Cell supernatant was mixed with an equal volume of the Griess reagent (1% sulfanilaminde and 0.1% N-[napthyl]ethylenediamine dihydrochloride in 2.5% H3PO4) at room temperature for 10 min. The absorbance at 540 nm was determined in a microtiter plate reader (Anthos HT II). NO estimation was carried out using standard curve plotted against known quantity of […]. Results presented are in μM concentration obtained from mean OD of triplicate wells of each group.
# [7] = system: TNF-α production in RAW-264.7 Cells; assay: Estimation of TNF-α production by ELISA in macrophage supernatant; assay type: cell-based, mouse; conditions: Table 6; RAW 264.7 supernatant; control 1662.00 ± 3.50
# Procedure: as §1
# Chain of snake venom Phosphodiesterase type I (J3SEZ3 24-851 limits assumed): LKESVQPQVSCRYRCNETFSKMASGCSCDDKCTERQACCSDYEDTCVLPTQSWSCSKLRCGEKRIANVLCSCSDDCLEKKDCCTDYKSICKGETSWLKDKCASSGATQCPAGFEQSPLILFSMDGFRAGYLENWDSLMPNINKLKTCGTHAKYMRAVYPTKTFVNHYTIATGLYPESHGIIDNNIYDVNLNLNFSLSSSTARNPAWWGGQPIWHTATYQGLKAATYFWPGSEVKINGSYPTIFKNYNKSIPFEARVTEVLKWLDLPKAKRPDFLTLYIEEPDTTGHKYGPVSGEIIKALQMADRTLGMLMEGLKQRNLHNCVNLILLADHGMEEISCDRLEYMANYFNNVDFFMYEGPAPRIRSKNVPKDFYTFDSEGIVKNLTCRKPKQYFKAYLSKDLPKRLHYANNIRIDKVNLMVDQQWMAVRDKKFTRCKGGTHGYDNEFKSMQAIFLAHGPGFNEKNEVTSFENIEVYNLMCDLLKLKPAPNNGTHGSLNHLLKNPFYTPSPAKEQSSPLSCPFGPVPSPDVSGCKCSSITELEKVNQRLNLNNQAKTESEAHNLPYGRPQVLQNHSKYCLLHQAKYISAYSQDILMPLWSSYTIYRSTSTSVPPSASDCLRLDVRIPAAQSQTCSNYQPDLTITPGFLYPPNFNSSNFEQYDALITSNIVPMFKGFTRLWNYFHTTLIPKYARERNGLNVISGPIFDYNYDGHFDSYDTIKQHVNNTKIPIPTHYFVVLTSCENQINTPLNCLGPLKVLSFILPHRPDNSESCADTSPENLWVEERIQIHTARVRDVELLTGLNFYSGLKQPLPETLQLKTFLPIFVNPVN
molecule,measurement,setting,value
O=P1(N(CCCl)CCCl)NCCCO1 (stereo not shown) [Cyclophosphamide],Antibody titre,[1],0.444 ± 0.141
C[C@H]1N[C@@H](CCCCCCCCCCC2=C[C@@H](CCCCCCCCCC[C@H]3CC[C@@H](O)[C@@H](C)N3)[C@@H]3CCCN3C2)CC[C@H]1O [Juliprosopine],antibacterial activity,[2],exhibiting antibacterial activity
OC[C@H]1O[C@@H](Oc2cc(O)c3c(c2)O[C@H](c2ccc(O)cc2)[C@H](O)C3)[C@H](O)[C@@H](O)[C@@H]1O [Symposide],antifibrinolytic activity,[3],showed antifibrinolytic activity
O=C(OCc1cc(O)ccc1O[C@@H]1O[C@H](CO)[C@@H](O)[C@H](O)[C@H]1O)c1ccccc1 [salireposide],inhibitory activity against snake venom Phosphodiesterase type I,"[4]; Ahmad et al. Phytochemistry, 2003",inhibitory activity
Lipopolysaccharide [LPS],IL-6 Conc.,[5],11187 ± 214 pg/mL
same,Proinflammatory Cytokine induced Cell Death (%),[6],79.0%
same,NO Levels,RAW-264.7 Cells,2862.50 ± 87.50 µM
same,TNF ∝ Levels,[7],3432.00 ± 140.50 pg/mL
same,TNF ∝ Levels (pg/ml),[7],3432.00 ± 140.50^• pg/ml
benzoylsalireposide,inhibitory activity against snake venom Phosphodiesterase type I,[4],inhibitory activity

# Reference: US7943181B2, “Natural immunostimulant compositions, methods for obtaining the same and pharmaceutical formulations thereof” (Himalaya Global Holdings Ltd., priority 2004, dated 2011)
